How the values were obtained:
ICR mice = assay: Pulmonary toxicity (fibrosis of the lung) in mice; details: for Incidence: Number of mice with pulmonary fibrosis/Number of mice in the treatment group / Incidence (%) of pulmonary fibrosis / Grade: Total score for pulmonary fibrosis/Total specimens / Grade of pulmonary fibrosis (total score divided by total number of specimens): 5 mg/kg i.p. once daily for 10 days; for Incidence: Number of mice with pulmonary fibrosis/Number of mice in the treatment group / Incidence (%) of pulmonary fibrosis: autopsy after 5 weeks of observation; for Incidence: Number of mice with pulmonary fibrosis/Number of mice in the treatment group: count; for Incidence (%) of pulmonary fibrosis: percentage in parentheses; for Grade: Total score for pulmonary fibrosis/Total specimens / Grade of pulmonary fibrosis (total score divided by total number of specimens): autopsy after 5 weeks, scores 0, 1, 2, 4, 6 points; for Grade: Total score for pulmonary fibrosis/Total specimens: fraction; for Grade of pulmonary fibrosis (total score divided by total number of specimens): value in parentheses; for Grade ratio: grade of the test compound to that of bleomycin complex; for Incidence ratio: incidence of the test compound to that of bleomycin complex
Protocol: ICR mice (male, 15-week-old) were used in groups of 10 each. The dose of each test compound was 5 mg/kg injected intraperitoneally once daily for 10 consecutive days. After the administration of the compound was completed, the animals were reared for 5 weeks for observation. Then, the animals were killed and autopsied so that the incidence and grade of pulmonary fibrosis were examined.
The incidence of pulmonary fibrosis was expressed as the number of mice developing pulmonary fibrosis in the group of mice administered the test compound. The grade of pulmonary fibrosis was expressed as the total score for pulmonary fibrosis divided by the total number of specimens.
1 point: Accumulation of exudate in the alveoli, and fibrosis-like changes seen in the alveolar septum.
2 points: Fibrosis seen at several sites.
4 points: Sporadic fibrosis.
6 points: Extensive fibrosis (fibrosis seen in more than 170 of the total region).
The ratio in the table represents the ratio of the incidence of the test compound to that of bleomycin complex, or the ratio of the grade of the test compound to that of bleomycin complex.

[1] = system: Mycobacterium smegmatis ATCC 607; assay: Antibacterial activity by the agar cylinder plate method, Mycobacterium smegmatis ATCC607; format: cell-based; details: copper-containing compound, standard bleomycin A2 = 1,000 mcg potency/mg
From the text: (§1) (1) Antibacterial activity against Mycobacterium smegmatis ATCC607 and Bacillus subtilis
(§2) The above activity ws determined by the agar cylinder plate method using the above microorganisms.

Bacillus subtilis = assay: Antibacterial activity by the agar cylinder plate method, Bacillus subtilis; format: cell-based; details: copper-containing compound, standard bleomycin A2 = 1,000 mcg potency/mg
From the text: as §1, §2

Row | Structure (SMILES) | Incidence: Number of mice with pulmonary fibrosis/Number of mice in the treatment group (ICR mice) | Incidence (%) of pulmonary fibrosis (ICR mice) [%] | Grade: Total score for pulmonary fibrosis/Total specimens (ICR mice) | Grade of pulmonary fibrosis (total score divided by total number of specimens) (ICR mice) | Grade ratio (ICR mice) | Incidence ratio (ICR mice) | Antibacterial titer of copper-compound [1] [mcg potency/mg] | Antibacterial titer of copper-compound (Bacillus subtilis) [mcg potency/mg] | Grade of pulmonary fibrosis (total score divided by total number of specimens) (ICR mice; the values are: mean fibrosis score per specimen)
1 | CCCCCCCCCCN(CCCCCCCCCC)CCCCN(CCCCCCCCCC)CCCNC(=O)c1csc(-c2csc(CCNC(=O)C(NC(=O)C(C)C(O)C(C)NC(=O)C(NC(=O)c3nc(C(CC(N)=O)NCC(N)C(N)=O)nc(N)c3C)C(OC3OC(CO)C(O)C(O)C3OC3OC(CO)C(O)C(OC(N)=O)C3O)c3cnc[nH]3)C(C)O)n2)n1 (centres unmarked) [Compound 8, 3-{N--n-decyl-N--[4'-bis(n-decyl)-aminobutyl]amino}propylaminobleomycin] | 0/10 | 0 | 0/30 | 0 | 0.00 | 0.00 | 295 | 75 | 
2 | Cc1c(N)nc(C(CC(N)=O)NCC(N)C(N)=O)nc1C(=O)NC(C(=O)NC(C)C(O)C(C)C(=O)NC(C(=O)NCCc1nc(-c2nc(C(=O)NCCCN(CCCCN(Cc3ccc(OCc4ccccc4)c(OCc4ccccc4)c3)Cc3ccc(OCc4ccccc4)c(OCc4ccccc4)c3)Cc3ccc(OCc4ccccc4)c(OCc4ccccc4)c3)cs2)cs1)C(C)O)C(OC1OC(CO)C(O)C(O)C1OC1OC(CO)C(O)C(OC(N)=O)C1O)c1cnc[nH]1 (centres unmarked) [Compound 10, 3-{N-m,p-dibenzyloxybenzyl-N-[4'bis(m,p-dibenzyloxybenzyl)aminobutyl]amino}propylaminobleomycin] | 0/10 | 0 | 0/30 | 0 | 0.00 | 0.00 | 136 | 6 | 
3 | Cc1c(N)nc(C(CC(N)=O)NCC(N)C(N)=O)nc1C(=O)NC(C(=O)NC(C)C(O)C(C)C(=O)NC(C(=O)NCCc1nc(-c2nc(C(=O)NCCCN(CCCCN(Cc3ccccc3)Cc3ccccc3)Cc3ccccc3)cs2)cs1)C(C)O)C(OC1OC(CO)C(O)C(O)C1OC1OC(CO)C(O)C(OC(N)=O)C1O)c1cnc[nH]1 (centres unmarked) [Compound 1, 3-[N-benzyl-N-(4'-dibenzylaminobutyl)amino]propylaminobleomycin] | 0/10 | 0 | 0/30 | 0 | 0.00 | 0.00 | 17360 | 400 | 
4 | COc1ccc(CN(CCCCN(Cc2ccc(OC)cc2)Cc2ccc(OC)cc2)CCCNC(=O)c2csc(-c3csc(CCNC(=O)C(NC(=O)C(C)C(O)C(C)NC(=O)C(NC(=O)c4nc(C(CC(N)=O)NCC(N)C(N)=O)nc(N)c4C)C(OC4OC(CO)C(O)C(O)C4OC4OC(CO)C(O)C(OC(N)=O)C4O)c4cnc[nH]4)C(C)O)n3)n2)cc1 (centres unmarked) [Compound 4, 3-{N--p-methoxybenzyl-N--[4'-bis(p-methoxybenzyl)aminobutyl]amino}propylaminobleomycin] | 0/10 | 0 | 0/30 | 0 | 0.00 | 0.00 | 11109 | 197 | 
5 | Cc1c(N)nc(C(CC(N)=O)NCC(N)C(N)=O)nc1C(=O)NC(C(=O)NC(C)C(O)C(C)C(=O)NC(C(=O)NCCc1nc(-c2nc(C(=O)NCCCN(CCCCN(Cc3ccc(Cl)cc3)Cc3ccc(Cl)cc3)Cc3ccc(Cl)cc3)cs2)cs1)C(C)O)C(OC1OC(CO)C(O)C(O)C1OC1OC(CO)C(O)C(OC(N)=O)C1O)c1cnc[nH]1 (centres unmarked) [Compound 2, 3-{N--p-chlorobenzyl-N--[4'-bis(p-chlorobenzyl)aminobutyl]amino}propylaminobleomycin] | 0/10 | 0 | 0/30 | 0 | 0.00 | 0.00 | 613 | 129 | 
6 | Cc1c(N)nc(C(CC(N)=O)NCC(N)C(N)=O)nc1C(=O)NC(C(=O)NC(C)C(O)C(C)C(=O)NC(C(=O)NCCc1nc(-c2nc(C(=O)NCCC[N+](C)(C)CCCCN(Cc3ccccc3)Cc3ccccc3)cs2)cs1)C(C)O)C(OC1OC(CO)C(O)C(O)C1OC1OC(CO)C(O)C(OC(N)=O)C1O)c1cnc[nH]1 (centres unmarked) [Compound 11, 3-[N,N-dimethyl-N-(4'-dibenzyl-aminobutyl)amino]propylaminobleomycin] |  |  |  |  |  |  | 20160 | 2528 | 
7 | Cc1ccc(CN(CCCCN(Cc2ccc(C)cc2)Cc2ccc(C)cc2)CCCNC(=O)c2csc(-c3csc(CCNC(=O)C(NC(=O)C(C)C(O)C(C)NC(=O)C(NC(=O)c4nc(C(CC(N)=O)NCC(N)C(N)=O)nc(N)c4C)C(OC4OC(CO)C(O)C(O)C4OC4OC(CO)C(O)C(OC(N)=O)C4O)c4cnc[nH]4)C(C)O)n3)n2)cc1 (centres unmarked) [Compound 5, 3-{N--p-methylbenzyl-N--[4'-bis(p-methylbenzyl)aminobutyl]amino}propylaminobleomycin] | 0/10 | 0 | 0/30 | 0 | 0.00 | 0.00 | 4560 | 203 | 
8 | Cc1c(N)nc(C(CC(N)=O)NCC(N)C(N)=O)nc1C(=O)NC(C(=O)NC(C)C(O)C(C)C(=O)NC(C(=O)NCCc1nc(-c2nc(C(=O)NCCCN(CCCCN(CC3CCCCCCC3)CC3CCCCCCC3)CC3CCCCCCC3)cs2)cs1)C(C)O)C(OC1OC(CO)C(O)C(O)C1OC1OC(CO)C(O)C(OC(N)=O)C1O)c1cnc[nH]1 (centres unmarked) [Compound 6, 3-{N--cyclooctylmethyl-N--[4'-bis(cyclooctylmethyl)aminobutyl]amino}propylaminobleomycin] | 0/10 | 0 | 0/30 | 0 | 0.00 | 0.00 | 530 | 61 | 
9 | Cc1c(N)nc(C(CC(N)=O)NCC(N)C(N)=O)nc1C(=O)NC(C(=O)NC(C)C(O)C(C)C(=O)NC(C(=O)NCCc1nc(-c2nc(C(=O)NCCCN(CCCCN(Cc3ccc(Cl)c(Cl)c3)Cc3ccc(Cl)c(Cl)c3)Cc3ccc(Cl)c(Cl)c3)cs2)cs1)C(C)O)C(OC1OC(CO)C(O)C(O)C1OC1OC(CO)C(O)C(OC(N)=O)C1O)c1cnc[nH]1 (centres unmarked) [Compound 3, 3-{N--m,p-dichlorobenzyl-N--[4'-bis(m,p-dichlorobenzyl)aminobutyl]amino}propylaminobleomycin] | 0/10 | 0 | 0/30 | 0 | 0.00 | 0.00 | 217 | 43 | 
10 | Cc1c(N)nc(C(CC(N)=O)NCC(N)C(N)=O)nc1C(=O)NC(C(=O)NC(C)C(O)C(C)C(=O)NC(C(=O)NCCc1nc(-c2nc(C(=O)NCCCNCCCCN)cs2)cs1)C(C)O)C(OC1OC(CO)C(O)C(O)C1OC1OC(CO)C(O)C(OC(N)=O)C1O)c1c[nH]cn1 (centres unmarked) [Compound A5, 3-(4'-aminobutylamino)propylaminobleomycin, reference compound] | 5/10 | 50 | 5/30 |  | 0.29 | 0.71 |  |  | 0.17
11 | Cc1c(N)nc(C(CC(N)=O)NCC(N)C(N)=O)nc1C(=O)NC(C(=O)NC(C)C(O)C(C)C(=O)NC(C(=O)NCCc1nc(-c2nc(C(=O)NCCC[N+](C)(CCCCN(Cc3ccccc3)Cc3ccccc3)Cc3ccccc3)cs2)cs1)C(C)O)C(OC1OC(CO)C(O)C(O)C1OC1OC(CO)C(O)C(OC(N)=O)C1O)c1cnc[nH]1 (centres unmarked) [Compound 12, 3-[N--methyl-N--benzyl-N--(4'-dibenzyl-aminobutyl)amino]propylaminobleomycin] | 0/10 | 0 | 0/30 | 0 | 0.00 | 0.00 | 13733 | 832 | 

— patent US4808703A, “Novel 3-(4'-aminobutylamino) propylaminobleomycin derivatives” (Zaidan Hojin Biseibutsu Kagaku Kenku Kai, priority 1983, dated 1989)
